Data taken from patent US10239825B2, “Ketamine derivatives” (Auckland Uniservices Limited, priority 2013, dated 2019).

What was measured:
[1] = test system: adult female Sprague-Dawley rats; experiment: rat infusion study: loss/recovery of righting reflex and walk (anaesthetic effect); assay type: in vivo; settings: for minimal effective dose: Rattus norvegicus, iv, total drug administered to achieve loss of righting reflex, i.v. infusion, read-out: LRR Dose; for LRR Dose, head-to-head ratio to ketamine / LRR Time, head-to-head ratio to ketamine / RRR Time, head-to-head ratio to ketamine / Walk Time, head-to-head ratio to ketamine: ratio compound/ketamine; for Walk Time: time from end of infusion to independent locomotion; for RRR Time: time from end of infusion to recovery of righting reflex; for LRR Time: time from onset of i.v. infusion to loss of righting reflex, 20 mg/kg/min initially
Description: (§1) All animal experiments were conducted at the Ruakura Research Centre, Hamilton, New Zealand, using experimental protocols reviewed and approved by the Ruakura Animal Ethics Committee (ethics ref 12604).
(§2) Following acquisition of baseline physiologic parameters (heart rate, respiratory rate, PWR, and righting reflex (RR)) adult female Sprague-Dawley rats of approximately 350-450 g were put under non-traumatic restraint and the marginal vein of the tail was cannulated. Ketamine or a compound of the invention at 10 mg/ml was administered via a minibore extension tube adequately secured to the tail. Infusions were commenced at a rate (weight-adjusted) to deliver 20 mg/kg/min initially (until the pedal withdrawal reflex score PWR=1), then were reduced to a rate of 6.7 mg/kg/min. Infusion rate was then titrated in an up-and-down fashion to maintain dorsal recumbency and a PWR=1 to 10 minutes before cessation. Three rats were used in each study, with each group of rats also acting as their own ketamine control. The order of study drug administration was determined by prior odds/evens randomisation with a recovery interval of at least one hour afforded between experiments. PWR and RR were recorded at 1 minute intervals throughout. The times from cessation of infusion to return of righting reflex (RRR), and from cessation of infusion to the animals displaying independent locomotion (walk) were recorded.
Loss of Righting Reflex (LRR):
This is primarily used to assess anaesthetic hypnotic effect. Righting reflex is judged absent when the rat fails to right from a position of dorsal recumbency to a position of sternal recumbency on three attempts performed in rapid succession. Dose to LRR is termed effective potency.

[2] = test system: adult female Sprague-Dawley rats; experiment: rat infusion study: pedal withdrawal reflex PWR = 1 (analgesic effect); assay type: in vivo; settings: for minimal effective dose: Rattus norvegicus, iv, total drug administered to achieve PWR = 1, i.v. infusion; for PWR = 1 Dose, head-to-head ratio to ketamine / PWR = 1 Time, head-to-head ratio to ketamine: ratio compound/ketamine; for PWR = 1 Time: time from onset of i.v. infusion to PWR = 1
Description: as §1, §2
Pedal Withdrawal Reflex (PWR) Scoring:
Nociceptive testing in animals was conducted via 1 second application of constant pressure (firm digital pressure) over the forepaw of the animal. Pedal withdrawal reflex testing is primarily used to assess analgesic effect, and responses are graded accordingly: 0, absent; 1, flicker; 2, moderate withdrawal; 3, fast withdrawal; 4, Fast withdrawal with cry/preceding apnoea (modified from Buitrago, S. et al. J. Amer. Assoc. Lab. Animal. Sci. 2008, 47, 11-17).

| SMILES | minimal effective dose [1] [mg/kg] | LRR Dose, head-to-head ratio to ketamine [1] | LRR Time, head-to-head ratio to ketamine [1] | RRR Time, head-to-head ratio to ketamine [1] | Walk Time, head-to-head ratio to ketamine [1] | Walk Time [1] [s] | RRR Time [1] [s] | LRR Time [1] [s] | minimal effective dose [2] [mg/kg] | PWR = 1 Dose, head-to-head ratio to ketamine [2] | PWR = 1 Time, head-to-head ratio to ketamine [2] | PWR = 1 Time [2] [s] | melting point [°C] | potency (in words) ([1]; rat infusion study, discussion) | recovery (in words) ([1]; rat infusion study, discussion) | recovery, fold faster than ketamine ([1]; after discontinuation of infusion) | properties of racemate versus enantiomer (in words) ([1]; rat infusion study, discussion) |
| --- | --- | --- | --- | --- | --- | --- | --- | --- | --- | --- | --- | --- | --- | --- | --- | --- | --- |
| CCOC(=O)CCNC1(c2ccccc2Cl)CCCCC1=O.Cl (racemic) [rac-C2Et, Ethyl 3-((1-(2-chlorophenyl)-2-oxocyclohexyl)amino)propanoate Hydrochloride] | 48 ± 23 | 1.78 | 1.75 | 0.11 | 0.10 | 253 ± 68 | 177 ± 51 | 135 ± 61 | 55 ± 25 | 1.45 | 1.62 | 154 ± 68 | 199 to 202 | – | – | – | – |
| CC(C)OC(=O)CCNC1(c2ccccc2Cl)CCCCC1=O.Cl (racemic) [rac-C2iPr, Iso-Propyl 3-((1-(2-chlorophenyl)-2-oxocyclohexyl)amino)propanoate Hydrochloride] | 33 ± 6 | 1.50 | 1.66 | 0.11 | 0.14 | 153 ± 33 | 83 ± 19 | 103 ± 17 | 37 ± 6 | 1.54 | 1.79 | 127 ± 13 | 203 to 205 | – | – | – | – |
| CCOC(=O)CCCNC1(c2ccccc2Cl)CCCCC1=O.Cl (racemic) [rac-C3Et, Ethyl 4-((1-(2-chlorophenyl)-2-oxocyclohexyl)amino)butanoate Hydrochloride] | 24 ± 2 | 1.41 | 1.19 | 0.062 | 0.08 | 170 ± 17 | 95 ± 12 | 70 ± 6 | 44 ± 5 | 1.83 | 1.80 | 137 ± 14 | 186 to 189 | – | – | – | – |
| CC(=O)OCCCNC1(c2ccccc2Cl)CCCCC1=O.Cl (racemic) [rac-C3OAc, Rac-3-((1-(2-Chlorophenyl)-2-oxocyclohexyl)amino)propyl Acetate Hydrochloride] | – | – | – | – | – | – | – | – | – | – | – | – | 180 to 183 | – | – | – | – |
| CC(C)OC(=O)CCCNC1(c2ccccc2Cl)CCCCC1=O.Cl (racemic) [rac-C3iPr, Isopropyl 4-((1-(2-chlorophenyl)-2-oxocyclohexyl)amino)butanoate hydrochloride] | 42 ± 9 | 1.83 | 1.81 | 0.042 | 0.08 | 110 ± 45 | 37 ± 22 | 125 ± 21 | 66 ± 17 | 2.36 | 2.29 | 192 ± 47 | 167 to 169 | – | – | – | – |
| CCOC(=O)CCCCNC1(c2ccccc2Cl)CCCCC1=O.Cl (racemic) [rac-C4Et, Rac-Ethyl 5-((1-(2-chlorophenyl)-2-oxocyclohexyl)amino)pentanoate hydrochloride] | 34 ± 4 | 2.00 | 1.73 | 0.09 | 0.05 | 158 ± 22 | 134 ± 22 | 97 ± 8 | 57 ± 12 | 2.48 | 2.26 | 172 ± 36 | 169 to 172 | – | – | – | – |
| CC(C)OC(=O)CCCCNC1(c2ccccc2Cl)CCCCC1=O.Cl (racemic) [rac-C4iPr, Isopropyl 5-((1-(2-chlorophenyl)-2-oxocyclohexyl)amino)pentanoate Hydrochloride] | 38 | 2.00 | 2.26 | 1.78 | 1.17 | 320 | 180 | 122 | 38 | 1.73 | 1.85 | 122 | 161 to 163 | – | – | – | – |
| CC(C)OC(=O)CCN[C@@]1(c2ccccc2Cl)CCCCC1=O.Cl [(R)-C2iPr, (R)-Isopropyl 3-((1-(2-chlorophenyl)-2-oxocyclohexyl)amino)propanoate Hydrochloride] | 71 | 2.96 | 3.20 | – | 0.06 | 900 | 0 | 170 | 82 | 3.15 | 2.75 | 190 | 216 to 219 | – | – | – | – |
| CC(C)OC(=O)CCN[C@]1(c2ccccc2Cl)CCCCC1=O.Cl [(S)-C2iPr, (S)-Isopropyl 3-((1-(2-chlorophenyl)-2-oxocyclohexyl)amino)propanoate hydrochloride] | 74 ± 9 | 2.46 | 3.41 | 0.02 | 0.19 | 224 ± 90 | 15 ± 15 | 222 ± 18 | 84 ± 4 | 2.47 | 3.14 | 247 ± 13 | 208 to 211 | only half as potent | faster recoveries than the corresponding racemates | – | – |
| CC(=O)OCCCN[C@]1(c2ccccc2Cl)CCCCC1=O.Cl [(S)-C3OAc, (S)-3-((1-(2-Chlorophenyl)-2-oxocyclohexyl)amino)propyl Acetate Hydrochloride] | 26 ± 3 | 1.30 | 1.37 | 0.65 | 0.51 | 983 ± 93 | 566 ± 30 | 81 ± 10 | 34 ± 1 | 1.10 | 1.12 | 104 ± 7 | – | about as potent as ketamine | – | 1.5-2 fold | – |
| COC(=O)CCCCN[C@]1(c2ccccc2Cl)CCCCC1=O.Cl [(S)-C4Me, (S)-Methyl 5-((1-(2-chlorophenyl)-2-oxocyclohexyl)amino)pentanoate Hydrochloride] | – | 1.80 | 1.94 | 0.07 | 0.51 | – | – | – | – | 1.76 | 1.81 | – | – | – | – | – | broadly equivalent properties |
